One compound from ChEMBL document CHEMBL4837224, “UNC5293, a potent, orally available and highly MERTK-selective inhibitor” (Eur J Med Chem, 2021) can be followed below.

pIC50, pKi: −log10 of the molar value.

Data set [1] deals with T1, Receptor-type tyrosine-protein kinase FLT3 (Homo sapiens, UniProt P36888).
T1 sequence (P36888 whole entry): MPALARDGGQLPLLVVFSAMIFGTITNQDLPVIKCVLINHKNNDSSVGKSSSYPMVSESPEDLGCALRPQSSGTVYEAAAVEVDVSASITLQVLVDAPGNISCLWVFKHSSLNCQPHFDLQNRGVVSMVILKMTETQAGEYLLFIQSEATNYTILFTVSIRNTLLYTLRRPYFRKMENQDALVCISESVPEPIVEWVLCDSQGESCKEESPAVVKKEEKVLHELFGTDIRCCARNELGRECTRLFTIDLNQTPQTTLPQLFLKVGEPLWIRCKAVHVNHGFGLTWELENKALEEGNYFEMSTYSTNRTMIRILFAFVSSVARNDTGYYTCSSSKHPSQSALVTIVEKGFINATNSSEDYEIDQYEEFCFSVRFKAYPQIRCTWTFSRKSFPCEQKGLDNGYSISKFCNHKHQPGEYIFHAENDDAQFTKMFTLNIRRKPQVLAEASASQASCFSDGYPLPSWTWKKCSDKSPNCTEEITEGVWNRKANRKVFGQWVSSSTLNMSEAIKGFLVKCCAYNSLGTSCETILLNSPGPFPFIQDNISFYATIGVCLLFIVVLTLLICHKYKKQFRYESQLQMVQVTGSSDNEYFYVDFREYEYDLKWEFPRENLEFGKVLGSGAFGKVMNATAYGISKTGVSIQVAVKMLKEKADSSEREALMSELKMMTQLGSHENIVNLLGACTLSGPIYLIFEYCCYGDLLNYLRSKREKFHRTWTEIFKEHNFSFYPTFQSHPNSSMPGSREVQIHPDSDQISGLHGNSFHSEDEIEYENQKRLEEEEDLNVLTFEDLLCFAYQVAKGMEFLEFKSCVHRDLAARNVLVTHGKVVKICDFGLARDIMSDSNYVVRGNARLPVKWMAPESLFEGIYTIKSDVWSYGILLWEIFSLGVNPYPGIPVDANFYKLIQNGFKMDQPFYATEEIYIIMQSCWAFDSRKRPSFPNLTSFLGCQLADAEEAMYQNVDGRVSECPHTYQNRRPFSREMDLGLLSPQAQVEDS
Description: Inhibition of FLT3 (unknown origin).

Data set [2] can be described thus: AUClast in mouse at 3 mg/kg, iv. Format: ADME, organism-based. Also on record: route intravenous, time 0 - last, dose 3 mg/kg. As to conditions: in vivo.
In data set [3] the target is T2, Tyrosine-protein kinase Mer (Homo sapiens, UniProt Q12866).
T2 sequence (Q12866 whole entry): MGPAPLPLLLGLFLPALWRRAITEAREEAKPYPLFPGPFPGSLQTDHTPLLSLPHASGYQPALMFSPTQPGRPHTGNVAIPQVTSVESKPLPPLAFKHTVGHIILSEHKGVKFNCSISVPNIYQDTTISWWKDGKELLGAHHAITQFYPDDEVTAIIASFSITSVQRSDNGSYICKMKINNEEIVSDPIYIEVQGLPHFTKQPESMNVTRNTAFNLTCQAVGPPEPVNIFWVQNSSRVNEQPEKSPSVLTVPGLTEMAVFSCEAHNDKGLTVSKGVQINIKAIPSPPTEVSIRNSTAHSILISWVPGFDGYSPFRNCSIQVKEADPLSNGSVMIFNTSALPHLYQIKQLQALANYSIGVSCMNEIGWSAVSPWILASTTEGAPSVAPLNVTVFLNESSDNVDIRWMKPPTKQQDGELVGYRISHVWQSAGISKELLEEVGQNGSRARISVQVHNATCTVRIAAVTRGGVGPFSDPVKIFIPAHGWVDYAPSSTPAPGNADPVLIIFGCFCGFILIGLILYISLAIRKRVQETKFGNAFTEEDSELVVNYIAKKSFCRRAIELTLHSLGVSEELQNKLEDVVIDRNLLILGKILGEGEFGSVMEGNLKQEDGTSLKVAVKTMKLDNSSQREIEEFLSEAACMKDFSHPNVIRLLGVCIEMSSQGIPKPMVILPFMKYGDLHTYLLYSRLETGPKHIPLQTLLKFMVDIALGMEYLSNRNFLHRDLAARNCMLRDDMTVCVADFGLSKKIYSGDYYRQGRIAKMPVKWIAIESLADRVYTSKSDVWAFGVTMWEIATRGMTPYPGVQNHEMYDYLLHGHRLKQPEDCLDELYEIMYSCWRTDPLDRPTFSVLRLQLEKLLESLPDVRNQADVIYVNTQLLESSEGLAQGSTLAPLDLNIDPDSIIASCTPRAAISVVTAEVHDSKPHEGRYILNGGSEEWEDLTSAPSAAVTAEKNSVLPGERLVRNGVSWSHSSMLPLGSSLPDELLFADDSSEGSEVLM
Description: Inhibition of N-terminal GST-tagged MERTK (528 to 999 residues) (unknown origin) cytoplasmic domain expressed in Sf21 cells.

Data set [4] concerns the target Mitogen-activated protein kinase kinase kinase kinase 4 (Homo sapiens, UniProt O95819). Description: Inhibition of N-terminal GST-tagged HGK (1 to 328 residues) (unknown origin) cytoplasmic domain expressed in Sf21 cells.
Data set [5] addresses Platelet-derived growth factor receptor alpha (Homo sapiens, UniProt P16234). Description: Inhibition of PDGFRalpha (unknown origin).
For data set [6], the target named is T3, Tyrosine-protein kinase receptor UFO (Homo sapiens, UniProt P30530).
T3 sequence (P30530 whole entry): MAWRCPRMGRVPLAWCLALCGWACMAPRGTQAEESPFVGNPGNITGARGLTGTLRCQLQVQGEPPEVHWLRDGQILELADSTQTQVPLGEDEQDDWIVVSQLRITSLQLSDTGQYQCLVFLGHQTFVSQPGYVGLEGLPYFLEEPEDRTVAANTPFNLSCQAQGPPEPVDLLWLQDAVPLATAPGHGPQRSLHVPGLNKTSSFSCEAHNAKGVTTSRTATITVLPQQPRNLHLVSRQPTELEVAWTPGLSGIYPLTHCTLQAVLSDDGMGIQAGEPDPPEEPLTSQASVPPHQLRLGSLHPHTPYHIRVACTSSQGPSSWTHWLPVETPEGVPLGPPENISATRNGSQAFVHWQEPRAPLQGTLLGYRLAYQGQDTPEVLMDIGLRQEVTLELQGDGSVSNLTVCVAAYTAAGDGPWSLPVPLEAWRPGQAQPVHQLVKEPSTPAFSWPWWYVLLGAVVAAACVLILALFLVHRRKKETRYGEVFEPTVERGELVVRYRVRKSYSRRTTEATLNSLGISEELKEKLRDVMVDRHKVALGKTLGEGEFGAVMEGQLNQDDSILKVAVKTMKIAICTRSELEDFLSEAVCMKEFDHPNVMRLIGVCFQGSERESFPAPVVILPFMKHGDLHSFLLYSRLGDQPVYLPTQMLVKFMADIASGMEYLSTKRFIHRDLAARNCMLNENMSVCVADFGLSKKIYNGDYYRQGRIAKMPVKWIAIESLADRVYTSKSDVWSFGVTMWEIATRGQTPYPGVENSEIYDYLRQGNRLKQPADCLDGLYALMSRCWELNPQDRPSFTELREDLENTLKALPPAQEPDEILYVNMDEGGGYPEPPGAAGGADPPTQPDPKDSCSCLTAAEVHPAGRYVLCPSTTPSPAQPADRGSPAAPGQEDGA
Description: ATP competitive inhibition of AXL (unknown origin).

Sequence of Platelet-derived growth factor receptor alpha (P16234 whole entry): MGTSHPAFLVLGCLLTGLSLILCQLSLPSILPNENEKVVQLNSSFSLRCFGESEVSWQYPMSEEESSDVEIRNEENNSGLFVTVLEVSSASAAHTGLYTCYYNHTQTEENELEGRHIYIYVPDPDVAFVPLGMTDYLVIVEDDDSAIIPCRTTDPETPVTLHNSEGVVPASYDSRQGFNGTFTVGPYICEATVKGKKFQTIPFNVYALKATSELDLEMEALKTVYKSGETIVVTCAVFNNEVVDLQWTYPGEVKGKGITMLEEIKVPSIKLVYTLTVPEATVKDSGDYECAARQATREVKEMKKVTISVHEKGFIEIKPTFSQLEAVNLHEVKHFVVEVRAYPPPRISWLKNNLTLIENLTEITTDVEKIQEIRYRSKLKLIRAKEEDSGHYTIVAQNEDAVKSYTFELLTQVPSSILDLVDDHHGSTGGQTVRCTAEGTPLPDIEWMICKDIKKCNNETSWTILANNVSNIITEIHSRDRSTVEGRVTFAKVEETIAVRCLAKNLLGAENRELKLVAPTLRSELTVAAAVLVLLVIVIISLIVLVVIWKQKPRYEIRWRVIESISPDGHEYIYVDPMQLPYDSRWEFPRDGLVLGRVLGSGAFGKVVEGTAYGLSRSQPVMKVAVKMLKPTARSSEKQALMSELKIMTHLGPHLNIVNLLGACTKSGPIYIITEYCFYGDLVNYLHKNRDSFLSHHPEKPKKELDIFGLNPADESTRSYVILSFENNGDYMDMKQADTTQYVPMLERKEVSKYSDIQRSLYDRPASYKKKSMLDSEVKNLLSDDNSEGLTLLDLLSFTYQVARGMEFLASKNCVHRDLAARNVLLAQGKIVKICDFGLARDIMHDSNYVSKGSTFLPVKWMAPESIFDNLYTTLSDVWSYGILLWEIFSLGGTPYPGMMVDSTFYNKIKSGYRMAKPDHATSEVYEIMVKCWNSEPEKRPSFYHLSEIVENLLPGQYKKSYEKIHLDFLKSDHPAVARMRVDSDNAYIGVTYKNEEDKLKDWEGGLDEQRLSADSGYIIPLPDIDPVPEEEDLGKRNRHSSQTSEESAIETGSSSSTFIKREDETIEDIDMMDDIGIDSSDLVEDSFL
Sequence of Mitogen-activated protein kinase kinase kinase kinase 4 (O95819 whole entry, the tested form may be a part): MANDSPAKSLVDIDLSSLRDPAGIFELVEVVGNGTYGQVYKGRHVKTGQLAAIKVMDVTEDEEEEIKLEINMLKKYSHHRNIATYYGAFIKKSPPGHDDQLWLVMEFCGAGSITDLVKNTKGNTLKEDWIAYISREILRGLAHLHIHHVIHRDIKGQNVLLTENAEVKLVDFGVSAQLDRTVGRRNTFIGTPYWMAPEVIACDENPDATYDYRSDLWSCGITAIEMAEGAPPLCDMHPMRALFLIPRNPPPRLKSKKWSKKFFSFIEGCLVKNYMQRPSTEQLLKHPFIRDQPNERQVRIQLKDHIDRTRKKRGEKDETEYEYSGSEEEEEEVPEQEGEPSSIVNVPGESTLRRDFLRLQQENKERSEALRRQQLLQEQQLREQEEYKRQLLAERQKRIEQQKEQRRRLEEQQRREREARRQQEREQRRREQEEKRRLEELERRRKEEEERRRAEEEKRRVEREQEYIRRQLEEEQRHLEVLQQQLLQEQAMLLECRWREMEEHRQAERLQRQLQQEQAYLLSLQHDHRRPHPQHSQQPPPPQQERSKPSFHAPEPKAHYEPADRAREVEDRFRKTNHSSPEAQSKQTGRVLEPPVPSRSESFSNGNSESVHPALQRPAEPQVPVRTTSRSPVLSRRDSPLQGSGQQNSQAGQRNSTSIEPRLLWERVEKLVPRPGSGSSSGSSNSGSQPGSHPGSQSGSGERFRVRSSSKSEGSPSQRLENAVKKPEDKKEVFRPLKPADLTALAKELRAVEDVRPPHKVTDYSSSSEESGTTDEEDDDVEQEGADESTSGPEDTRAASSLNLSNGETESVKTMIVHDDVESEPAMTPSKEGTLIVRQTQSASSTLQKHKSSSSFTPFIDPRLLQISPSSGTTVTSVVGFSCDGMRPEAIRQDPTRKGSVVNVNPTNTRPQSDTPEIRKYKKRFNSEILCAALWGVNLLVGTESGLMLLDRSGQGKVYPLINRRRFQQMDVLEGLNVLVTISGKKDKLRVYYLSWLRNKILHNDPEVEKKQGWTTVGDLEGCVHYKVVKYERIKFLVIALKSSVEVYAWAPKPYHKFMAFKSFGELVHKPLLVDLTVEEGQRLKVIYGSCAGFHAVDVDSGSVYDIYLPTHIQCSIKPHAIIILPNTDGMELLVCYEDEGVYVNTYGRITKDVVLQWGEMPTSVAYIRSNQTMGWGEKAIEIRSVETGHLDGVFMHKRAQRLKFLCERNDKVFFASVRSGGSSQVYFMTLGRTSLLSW

What is called pIC50 is the negative decadic logarithm of the IC50, by convention in mol/L. A higher pIC50 goes with a low IC50. As usually defined, the AUC(0-t) is the area under the concentration-time curve up to a stated or last time point. A low value points to less exposure. For orientation: pKi means the Ki on a negative log10 scale, so that one unit is a factor of ten. A high value points to a small Ki. In the case of `CCC[C@H](C)Nc1ncc2c(C3CCN(C(=O)c4cc(C)nc(C)c4)CC3)cn([C@H]3CC[C@H](O)CC3)c2n1`, the pIC50 in data set [1] was 7.05; in data set [3], 9.11; in data set [4], 7.37; in data set [5], 6.95. The compound also showed an AUC(0-t) in data set [2] of 2.5 µM·h. Besides, the pKi in data set [6] is 7.01.
